Test results as given in paper PMC12494543, “Identification of ALKBH6 as a nucleotide demethylase with a distinct substrate preference” (The Journal of Biological Chemistry, 2025).

Assays:
ALKBH6 [1] = biological target: T1, ALKBH6 (Homo sapiens, UniProt Q3KRA9); experiment: Demethylation assay by HPLC analysis; format: biochemical; details: substrate 250 and 500 μM, 30 min
T1 construct: His-tag; made in house
Method: Following ALKBH6-mediated demethylation, NMPs and dNMPs were analyzed in an HPLC system (Shimadzu) equipped with a reversed-phase Shim-pack GIST C18 5 μm separation column (250 × 4.6 mm). For majority of the nucleotides including 1me-AMP, 1me-dAMP, 7me-dGMP, 6me-AMP, 7me-GMP, 3me-dCMP, dAMP, dCMP AMP, GMP, the column was equilibrated with mobile phase A (50 mM ammonium acetate) and mobile phase B (50 mM ammonium acetate, 50% of acetonitrile and 0.1% trifluoroacetic acid. For dGMP, different mobile phase A (50 mM ammonium acetate, 3% methanol, pH-5.0) and mobile phase B (methanol) were used. The peaks were identified based on the elution time of the standards (Fig. S9) purchased from Sigma and further analyzed using LabSolutions software (www.shimadzu.com) and analyzed by mass spectrometry.

ALKBH6 [2] = biological target: T1, ALKBH6; experiment: FDH-coupled formaldehyde release demethylation assay; format: biochemical; details: for formaldehyde release / demethylation by ALKBH6: FDH-coupled assay, tested as substrate; for inhibition of ALKBH6-mediated demethylation: me-dNMPs as substrate
Method: NMPs including 1meAMP (Jena Bioscience, NU-1029-1,) 7meGMP (Jena Bioscience, NU-1135S), 6me-AMP (Sigma, M2780) were purchased. N-methylated deoxy-NMPs were prepared by methylating chemically synthesized 30-mer oligonucleotide containing either dA, dG, dC, or dT by MMS (5%, v/v) (0.59 M) MMS (Sigma, 129925) and purified as described before ([17]). The oligonucleotides were digested with nuclease P1 (NEB) at 37 °C for 4 h to produce deoxy-NMPs. After heat inactivating the nuclease, dNMPs were purified by HPLC and used for the demethylation reaction. N-methylated NMPs were purified similarly, using RNA as the starting material. For the demethylation reaction, ALKBH6 (1 μM) and me-dNMPs (1 mM) were mixed in the dioxygenase reaction buffer and incubated at 37 °C for 30 min. Formaldehyde release was detected by FDH-coupled DNA repair assay as described before ([32], [33]). Briefly, 1 mM NAD+ and 0.01 U FDH were added to the dioxygenase reaction buffer containing methylated nucleotide and ALKBH6. NADH generated was detected by the characteristic absorption peak (340 nm) using a 96-well multimode reader (Synergy, Biotek Instrument). Formaldehyde production was quantified from the standard curve and the initial velocities were determined using various substrate concentrations. The results were plotted and analyzed using GraphPad Prism.

AlkB = AlkB substrate; cited from earlier work
ALKBH6 [3] = biological target: T1, ALKBH6; experiment: Intrinsic tryptophan fluorescence quenching (Stern-Volmer); format: binding; details: WT ALKBH6, 2OG omitted
Method: All tryptophan fluorescence spectroscopy experiments were performed using a multimode plate reader (PerkinElmer). The excitation and emission wavelengths were fixed at 280 nm and 356 nm, respectively. To measure ALKBH6–ligand interactions, recombinant ALKBH6 (500 nM), and increasing concentrations of ligand (0–80 μM) were equilibrated in binding buffer (50 mM Hepes, pH 7.6, 300 mM KCl) for 1 h. For Stern–Volmer quenching analysis, the F0/F = 1 + KSV(L) formula was used, where, KSV is the Stern–Volmer constant, L is the concentration of the quencher, F0 and F represent the steady-state fluorescence intensities in the absence and presence of quencher, respectively. All the data were calculated with best-fit parameter values and 95% confidence intervals in GraphPad Prism software.

MTH1 = system: MTH1; set-up: method as in PMID 30304478; details: MTH1 substrate; cited from earlier work
[4] = substrate of ALKBH6, Michaelis-Menten

T1 sequence (Q3KRA9 whole entry): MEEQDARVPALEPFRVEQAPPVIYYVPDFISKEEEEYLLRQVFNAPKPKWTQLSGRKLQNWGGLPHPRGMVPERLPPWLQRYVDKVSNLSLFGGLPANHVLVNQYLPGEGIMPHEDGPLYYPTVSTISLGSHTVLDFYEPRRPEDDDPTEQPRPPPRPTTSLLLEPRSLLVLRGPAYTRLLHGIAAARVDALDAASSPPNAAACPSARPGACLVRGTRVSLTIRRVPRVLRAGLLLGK

| demethylation by ALKBH6 (HPLC) (ALKBH6 [1]) | formaldehyde release / demethylation by ALKBH6 (ALKBH6 [2]) | SMILES | further results |
| --- | --- | --- | --- |
| efficiently demethylate | Formaldehyde release was observed | Cn1c(=N)ccn([C@H]2C[C@H](O)[C@@H](COP(=O)(O)O)O2)c1=O [3me-dCMP] | – |
| – | – | O=C(O)CCC(O)C(=O)O (stereo not shown) [2HG, 2-hydroxyglutarate, reference compound] | inhibition of ALKBH6-mediated demethylation (ALKBH6 [2]): inhibited |
| – | could not demethylate | Cn1cnc2c(ncn2[C@@H]2O[C@H](CO)[C@@H](O)[C@H]2O)c1=N [1me-adenosine, reference compound] | – |
| – | comparatively less | Cn1c[n+]([C@@H]2O[C@H](COP(=O)([O-])OP(=O)(O)OP(=O)(O)O)[C@@H](O)[C@H]2O)c2nc(N)[nH]c(=O)c21 [7me-GTP] | Stern-Volmer constant (Ksv) (ALKBH6 [3]): 0.007 µM⁻¹ |
| – | – | COc1nc(N)nc2c1ncn2[C@@H]1O[C@H](COP(=O)(O)OP(=O)(O)OP(=O)(O)O)[C@@H](O)[C@H]1O [O^6-methyl-GTP] | kcat (MTH1): 0.3 s⁻¹ |
| did not observe any demethylation | did not observe any demethylation | CNc1ncnc2c1ncn2[C@@H]1O[C@H](COP(=O)(O)O)[C@@H](O)[C@H]1O [6me-AMP] | – |
| – | – | COc1nc(N)nc2c1ncn2[C@H]1C[C@H](O)[C@@H](COP(=O)(O)OP(=O)(O)OP(=O)(O)O)O1 [O6-methyl-dGTP] | Km (MTH1): 13.2 µM; kcat (MTH1): 8.3 s⁻¹ |
| – | could not demethylate | Cn1c[n+]([C@@H]2O[C@H](CO)[C@@H](O)[C@H]2O)c2nc(N)[nH]c(=O)c21 [7me-guanosine, reference compound] | – |
| – | – | Cn1c(N)nc2c(ncn2[C@@H]2O[C@H](COP(=O)(O)OP(=O)(O)OP(=O)(O)O)[C@@H](O)[C@H]2O)c1=O [1me-GTP] | Stern-Volmer constant (Ksv) (ALKBH6 [3]): 0.004 µM⁻¹ |
| converted to AMP | – | C[n+]1cnc2c(ncn2[C@@H]2O[C@H](COP(=O)(O)O)[C@@H](O)[C@H]2O)c1N [1me-AMP, N-1-methyl-adenosine monophosphate] | Stern-Volmer constant (Ksv) (ALKBH6 [3]): 0.011 ± 0.002 µM⁻¹ |
| – | comparatively less | Cn1cnc2c(ncn2[C@@H]2O[C@H](COP(=O)(O)OP(=O)(O)OP(=O)(O)O)[C@@H](O)[C@H]2O)c1=N [1me-ATP] | – |
| – | – | O=C(O)CCC(=O)O [succinate, reference compound] | inhibition of ALKBH6-mediated demethylation (ALKBH6 [2]): inhibited |
| efficiently demethylate | Formaldehyde release was observed | C[n+]1cn([C@H]2C[C@H](O)[C@@H](COP(=O)(O)O)O2)c2nc(N)[nH]c(=O)c21 [7me-dGMP] | Km (ALKBH6 [2]; [4]): 1.03 µM; kcat (ALKBH6 [2]; [4]): 0.18 s⁻¹ |

| SMILES | demethylation by ALKBH6 (HPLC) (ALKBH6 [1]) | formaldehyde release / demethylation by ALKBH6 (ALKBH6 [2]) | further results |
| --- | --- | --- | --- |
| Cn1cnc2c(ncn2[C@H]2C[C@H](O)[C@@H](COP(=O)(O)O)O2)c1=N [1me-dAMP] | efficiently demethylate | Formaldehyde release was observed | Km (AlkB): 2 µM; kcat (AlkB): 0.07 s⁻¹ |
